The target in experiment [1] is T1, Thromboxane A2 receptor (Homo sapiens, UniProt P21731).
T1 sequence (P21731 whole entry): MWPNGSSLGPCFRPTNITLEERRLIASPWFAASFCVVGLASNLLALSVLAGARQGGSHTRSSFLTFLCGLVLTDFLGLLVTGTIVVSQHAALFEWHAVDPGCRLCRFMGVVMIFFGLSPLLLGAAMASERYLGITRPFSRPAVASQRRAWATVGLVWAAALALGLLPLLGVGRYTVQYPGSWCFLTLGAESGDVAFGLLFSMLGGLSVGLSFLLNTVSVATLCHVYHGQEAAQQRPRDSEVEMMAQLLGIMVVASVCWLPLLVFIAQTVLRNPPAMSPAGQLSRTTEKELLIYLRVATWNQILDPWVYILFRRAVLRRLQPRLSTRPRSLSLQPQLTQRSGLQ
Put plainly: In vitro inhibition against TXA2/PGH2 receptor using [3H]-SQ 29,548 as radioligand in human platelet membrane preparation. The experiment is classed as cell membranes. The note with it: read-out: I50.

Experiment [2] has as its target T1, Thromboxane A2 receptor. Put plainly: In vitro binding affinity was determined for platelet thromboxane receptor in presence of [3H]-SQ 29548.
For the next experiment, the species on record is Homo sapiens. Put plainly: Tested for ability to inhibit arachidonic acid-induced and ADP-induced platelet aggregation of human platelet rich plasma. The experiment is classed as functional. The note with it: read-out: I50.

For six molecules, IC50 and Kd results are on record in ChEMBL document CHEMBL1126506, “Thoromboxane A2/endoperoxide receptor antagonists: 1,3-Dioxane and 1,3-dioxolane analogs” (Bioorg Med Chem Lett, 1993).

As a reminder, the Kd is a measure of binding affinity in units of concentration.

`O=C(O)CCc1ccccc1CC1C2CCC(O2)C1c1nc(C(=O)NCCc2ccc(Cl)cc2)co1` (stereo not given): the IC50 at Thromboxane A2 receptor [1] is 7 nM.

With `O=C(O)CCc1ccccc1CC1COCOC1c1nc(C(=O)NCCc2ccc(Cl)cc2)co1` (stereo not given), the IC50 at Thromboxane A2 receptor [1] came out at 330 nM. Moreover, the Kd at Thromboxane A2 receptor [2] was found to be 8 nM.

On to `O=C(O)CCc1ccccc1CC1OCOC1c1nc(C(=O)NCCc2ccc(Cl)cc2)co1` (racemic), for which the IC50 on Thromboxane A2 receptor [1] worked out at 130 nM. For the same molecule, the Kd at Thromboxane A2 receptor [2] worked out at 31.1 nM.

As for `O=C(O)CCc1ccccc1CC1OCOC1c1nc(C(=O)NCCc2ccc(Cl)cc2)co1` (trans isomer; (+)), the IC50 at Thromboxane A2 receptor [1] came to 3100 nM. Moreover, the Kd on Thromboxane A2 receptor [2] stood at 45 nM.

For the molecule `O=C(O)CCc1ccccc1CC1OCOC1c1nc(C(=O)NCCc2ccc(Cl)cc2)co1` (trans isomer; (-)), on Thromboxane A2 receptor [1], the IC50 was 310 nM. Besides, on Thromboxane A2 receptor [2], the Kd worked out at 8.2 nM.

With `CCCCCNC(=O)c1coc(C2C3CCC(O3)C2Cc2ccccc2CCC(=O)O)n1` (stereo not given) [BMS-180291], in the experiment filed under Homo sapiens, the IC50 turned out to be 7 nM.
